What was measured:
[1] = test system: U-2 OS cells; assay: Fragile telomeres in cells overexpressing FANCM variants; format: cell-based, human; conditions: stable overexpression
Excerpt: (a) Schematic of FANCM domain interactions, mutations or deletions. For clarity, domains have been color coded by functional role (bottom panel). (b) Quantitation of metaphase-TIFs in U-2 OS cells stably overexpressing wild-type (FANCM+) or FANCM mutants. Scatterplot bars represent the mean±SEM. Out of 3 experiments, n≥110 metaphases scored for each mutant, *p<0.05, **p<0.005, Mann-Whitney test. (c) Quantitation of fragile telomeres in U-2 OS cells stably overexpressing wild-type (FANCM+) or FANCM mutants. Scatterplot bars represent the mean±SEM. Out of 3 experiments, n>100 metaphases scored for each mutant, *p<0.05, **p<0.005, Mann-Whitney test. (d) Representative dot blots and quantitation of C-circle assays in U-2 OS cells stably overexpressing wild-type (FANCM+) or FANCM domain mutants. C-circles were normalized to the mean of vector control. Error bars represent mean±SEM from n=3 experiments, *p<0.05, **p<0.005, Student's t-test. (e) Single molecule analysis of telomeric extension events (top panel) and length of extension events (bottom panel) in U-2 OS cells stably overexpressing wild-type (FANCM+) or FANCM domain mutants. Error bars represent mean±SEM of n≥350 fibers out of 3 experiments, *p<0.05, **p<0.005, Student's t-test.
(§1) Empty vector and wild-type FANCM (pCMV6-Myc-DDK) constructs were obtained from Origene Technologies. Wild type FANCM (SEQ ID NO: 2) and FANCM mutants (SEQ ID NOs: 19 to 28) were cloned into the pLenti-C-Myc-DDK-IRES-Neo backbone (Origene Technologies) by restriction enzyme subcloning of gene blocks synthesized by Integrated DNA Technologies (IDT). Lentivirus was produced by the Vector and Genome Engineering Facility (Children's Medical Research Institute). For stable overexpression, cells were transduced with lentivirus, allowed to recover for 24 h, and subject to G418 selection. Cells were maintained in G418 to ensure sustained overexpression.
Indirect IF and telomere FISH were performed on both interphase nuclei and metaphase spreads. For interphase IF experiments, cells were grown on coverslips or LabTek chamber slides (Thermo Scientific). Slides were prepared as described in Sobinoff et al., 2017. Cells on coverslips were washed twice with PBS, permeabilized with KCM buffer (120 mM KCl, 20 mM NaCl, 10 mM Tris pH 7.5, 0.1% Triton), washed again with PBST and PBS, then fixed with ice-cold 4% formaldehyde PBS solution at room temperature for 10 min. Coverslips were blocked with antibody-dilution buffer (20 mM Tris-HCl, pH 7.5, 2% (w/v) BSA, 0.2% (v/v) fish gelatin, 150 mM NaCl, 0.1% (v/v) Triton X-100 and 0.1% (w/v) sodium azide) and 0.1 mg/ml RNaseA for 30 min at 37° C. […]

[2] = test system: U-2 OS cells; assay: TRF analysis of cells overexpressing FANCM variants; format: cell-based, human; conditions: overexpression
Excerpt: (a) Western immunoblotting of stable wild-type FANCM (FANCM+) or FANCM mutant overexpression in U-2 OS cells. […] (b) TRF analysis of U-2 OS cells overexpressing wild-type (FANCM+) or FANCM mutants. Gels were hybridized under native and denatured conditions with radiolabelled telomeric probes to detect the C-strand and G-strand. (c) Tukey boxplots of APB frequency (top panel) and mean APB telomere intensity (bottom panel) in U-2 OS cells overexpressing wild-type (FANCM+) or FANCM mutants. Out of 3 experiments, n=150 cells scored per variant, *p<0.05, **p<0.005, Mann-Whitney test.
as §1
Genomic DNA was digested with 4 U/μg of HinfI and RsaI overnight at 37° C. […]

“K117R: FANCM mutant (SEQ ID NO: 20) substituted at K117R, DEAH domain disrupted” was tested, and the “number of fragile telomeres (telomere fragility)” value [1] was “failed to suppress the phenotypes” and the “low molecular weight ss C-rich telomeric DNA” value [2] was “smear of low molecular weight ss C-rich telomeric DNA was observed”.

In the case of “FF>AA: FANCM mutant (SEQ ID NO: 25), double substitution F1232A/F1236A within the MM2 domain”, the “number of fragile telomeres (telomere fragility)” value [1] was “significantly increased” and the “low molecular weight ss C-rich telomeric DNA” value [2] was “smear of low molecular weight ss C-rich telomeric DNA was observed”.

From patent US20230149507A1, “TREATMENT OF ALT CANCERS” (INSTITUTO DE MEDICINA MOLECULAR JOÃO LOBO ANTUNES, priority 2019, published 2023)
